Reference: US11198713B2, “Agents modulating beta-catenin functions and methods thereof” (FOG PHARMACEUTICALS, INC., priority 2017, dated 2021)
Converted amounts (≈) assume the structure as drawn. Like-named read-outs stand apart in the source and are kept apart here.

Columns and labels:
[1] = target: T1, full-length beta-catenin (Axin site) (Homo sapiens, UniProt P35222); experiment: Competition fluorescence polarization assay (Axin site probe); format: binding; conditions: competition fluorescence polarization, Table 2; read-out: in vitro FP EC50
T1 construct: 15 nM full-length beta-catenin, 20 nM FITC labeled peptide in buffer
T1 sequence (P35222 1-781): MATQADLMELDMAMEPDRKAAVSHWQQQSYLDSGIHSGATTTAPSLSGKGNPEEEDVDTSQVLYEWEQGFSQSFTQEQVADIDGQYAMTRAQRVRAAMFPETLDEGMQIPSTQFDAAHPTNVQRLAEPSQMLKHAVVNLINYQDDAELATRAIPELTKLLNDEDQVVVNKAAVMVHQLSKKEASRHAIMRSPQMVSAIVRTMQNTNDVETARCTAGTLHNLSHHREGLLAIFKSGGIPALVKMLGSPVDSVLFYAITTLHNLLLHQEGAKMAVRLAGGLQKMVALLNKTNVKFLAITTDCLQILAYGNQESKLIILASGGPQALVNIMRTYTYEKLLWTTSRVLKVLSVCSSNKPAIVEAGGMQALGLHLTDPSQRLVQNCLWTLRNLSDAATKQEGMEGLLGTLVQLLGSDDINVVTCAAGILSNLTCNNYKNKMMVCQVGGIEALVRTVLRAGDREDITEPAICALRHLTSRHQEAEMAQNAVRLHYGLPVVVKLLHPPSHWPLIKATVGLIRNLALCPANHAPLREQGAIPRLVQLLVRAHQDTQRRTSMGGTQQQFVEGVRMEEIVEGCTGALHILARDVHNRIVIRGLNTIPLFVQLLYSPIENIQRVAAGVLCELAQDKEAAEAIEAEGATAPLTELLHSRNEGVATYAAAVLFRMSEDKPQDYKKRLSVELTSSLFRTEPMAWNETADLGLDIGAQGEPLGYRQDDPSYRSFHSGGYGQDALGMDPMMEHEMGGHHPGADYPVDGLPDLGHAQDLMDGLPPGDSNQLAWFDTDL
Summary of the method: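 Competition FP: 15 nM full-length β-catenin pre-incubated 5 min with 20 nM FITC-labelled stapled Axin-site peptide, then titrated peptide added (3-fold series from 5 μM) for 15 min in the dark. Buffer 50 mM Tris pH 8.0, 250 mM NaCl, 2% glycerol, 0.5 mM EDTA; duplicate reads.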

[2] = target: T2, biotinylated beta-catenin (Homo sapiens, UniProt P35222); experiment: Surface Plasmon Resonance (Biacore); format: binding
T2 sequence (P35222 1-781): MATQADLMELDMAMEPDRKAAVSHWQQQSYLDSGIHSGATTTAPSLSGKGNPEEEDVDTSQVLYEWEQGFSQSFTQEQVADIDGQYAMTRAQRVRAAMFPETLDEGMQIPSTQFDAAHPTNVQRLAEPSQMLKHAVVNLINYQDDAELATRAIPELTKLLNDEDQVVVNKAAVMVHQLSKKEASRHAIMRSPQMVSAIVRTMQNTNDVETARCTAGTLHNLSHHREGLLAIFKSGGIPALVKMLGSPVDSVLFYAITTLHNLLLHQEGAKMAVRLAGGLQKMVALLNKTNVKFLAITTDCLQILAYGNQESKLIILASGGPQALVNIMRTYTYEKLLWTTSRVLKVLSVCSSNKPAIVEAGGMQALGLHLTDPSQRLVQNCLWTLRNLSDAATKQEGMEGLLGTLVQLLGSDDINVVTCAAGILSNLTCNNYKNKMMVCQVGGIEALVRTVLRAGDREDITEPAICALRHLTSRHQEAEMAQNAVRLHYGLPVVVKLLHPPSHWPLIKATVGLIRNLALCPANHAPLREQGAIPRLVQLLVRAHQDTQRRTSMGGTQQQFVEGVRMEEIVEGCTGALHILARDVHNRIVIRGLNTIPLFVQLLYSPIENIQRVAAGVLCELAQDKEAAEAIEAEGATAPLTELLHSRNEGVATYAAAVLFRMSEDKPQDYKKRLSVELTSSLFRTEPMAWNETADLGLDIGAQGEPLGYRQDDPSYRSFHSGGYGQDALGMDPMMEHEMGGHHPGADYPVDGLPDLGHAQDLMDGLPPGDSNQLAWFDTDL
Protocol: Additionally or alternatively, binding to beta-catenin may be measured by Surface Plasmon Resonance. In an exemplary assay, approximately 6 nmol dried peptide diluted in buffer (50 mM Tris pH 8.0, 300 mM NaCl, 2% glycerol, 0.5 mM TCEP, 0.5 mM EDTA, 0.005% Tween-20, 1 mg/mL CM Dextran, 0.02% w/v sodium azide) was assayed on a Biacore X100 using the Biacore Biotin CAPture Kit (GE Healthcare) and biotinylated beta-catenin. Results were analyzed using the Biacore X100 Evaluation Software. […] FPO217c (Isomer 2) bound to the armadillo domain of β-catenin with a Kd of 2 nM.

[3] = Solubility in DPBS (A280 of supernatant); format: physicochemical; conditions: DPBS
Summary of the method: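 Dried peptide reconstituted in DPBS in triplicate, vortexed, sonicated and centrifuged. Supernatant A280 measured; concentration calculated using the tryptophan extinction coefficient.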

| SMILES | EC50 [1] [nM] | Kd ([2]; Table 2, read-out: Kd by SPR) [nM] | Kd ([2]; Table 3 Part A, read-out: Binding Kd) [nM] | solubility ([3]; Table 2, read-out: Solubility) [µM] | solubility ([3]; Table 3 Part A, read-out: Solubility in DPBS) [µM] |
| --- | --- | --- | --- | --- | --- |
| CC[C@H](C)[C@@H]1NC(=O)[C@H](Cc2c[nH]cn2)NC(=O)[C@H](C)NC(=O)[C@H](CC(=O)O)NC(=O)[C@H](CC(C)C)NC(=O)[C@H]([C@@H](C)CC)NC(=O)[C@](C)(NC(=O)[C@H](C)NC(C)=O)CCC=CCOC(=O)N(C)CCC[C@@](C)(C(=O)N[C@@H](CCCNC(=N)N)C(=O)N[C@H](C(=O)N[C@@H](Cc2c[nH]c3ccccc23)C(N)=O)C(C)C)NC1=O [FP0509c, Ac-A-R4-I-L-D-A-H-I-MH-R-V-W-NH2] | < 100 | 3 | 3 | 32 (≈ 49.9 µg/mL) | 42 (≈ 65.4 µg/mL) |
| CC[C@H](C)[C@@H]1NC(=O)[C@@]2(NC(=O)[C@H](CCC(N)=O)NC(=O)[C@@H]3CCCN3C(C)=O)CCN(CC=CCCCC[C@](C)(C(=O)N[C@@H](Cc3c[nH]cn3)C(=O)N[C@H](C(=O)N[C@@H](CCCNC(=N)N)C(=O)N[C@@H](CCCNC(=N)N)C(=O)N[C@H](C(=O)N[C@@H](Cc3c[nH]c4ccccc34)C(=O)N[C@@H](CCCNC(=N)N)C(N)=O)C(C)C)C(C)C)NC(=O)[C@H](CC(=O)O)NC(=O)[C@H](CC(C)C)NC1=O)C2 (single isomer, unassigned) [FP0745a, Ac-P-Q-MC-I-L-D-R6-H-V-R-R-V-W-R-NH2] | 100 to 500 | 34 | – | – | – |
| CC[C@H](C)[C@@H]1NC(=O)C2(NC(=O)[C@H](CCC(N)=O)NC(=O)[C@@H]3CCCN3C(C)=O)CN(C2)C(=O)OCC=CCCCC[C@](C)(C(=O)N[C@@H](Cc2c[nH]cn2)C(=O)N[C@H](C(=O)N[C@@H](CCCNC(=N)N)C(=O)N[C@@H](CCCNC(=N)N)C(=O)N[C@H](C(=O)N[C@@H](Cc2c[nH]c3ccccc23)C(=O)N[C@@H](CCCNC(=N)N)C(N)=O)C(C)C)C(C)C)NC(=O)[C@H](CC(=O)O)NC(=O)[C@H](CC(C)C)NC1=O (single isomer, unassigned) [FP0725c, Ac-P-Q-MA-I-L-D-R6-H-V-R-R-V-W-R-NH2] | < 100 | 22 | – | – | – |
| CC[C@H](C)[C@@H]1NC(=O)[C@@](C)(NC(=O)[C@H](CCC(N)=O)NC(=O)[C@@H]2CCCN2C(C)=O)CCCC=CCCC[C@@](C)(C(=O)N[C@@H](Cc2c[nH]cn2)C(=O)N[C@H](C(=O)N[C@@H](CCCNC(=N)N)C(=O)N[C@@H](CCCNC(=N)N)C(=O)N[C@H](C(=O)N[C@@H](Cc2c[nH]c3ccccc23)C(=O)N[C@@H](CCCNC(=N)N)C(N)=O)C(C)C)C(C)C)NC(=O)[C@H](CC(=O)O)NC(=O)[C@H](CC(C)C)NC1=O [FP0787s, Ac-P-Q-S5-I-L-D-S5-H-V-R-R-V-W-R-NH2] | 100 to 500 | 14 | – | – | – |
| CC[C@H](C)[C@@H]1NC(=O)[C@](C)(NC(=O)[C@H](CCC(N)=O)NC(=O)[C@@H]2CCCN2C(C)=O)CCC=CCOC(=O)N2CC[C@](C(=O)N[C@@H](Cc3c[nH]cn3)C(=O)N[C@H](C(=O)N[C@@H](CCCNC(=N)N)C(=O)N[C@@H](CCCNC(=N)N)C(=O)N[C@H](C(=O)N[C@@H](Cc3c[nH]c4ccccc34)C(=O)N[C@@H](CCCNC(=N)N)C(N)=O)C(C)C)C(C)C)(C2)NC(=O)[C@H](CC(=O)O)NC(=O)[C@H](CC(C)C)NC1=O (single isomer, unassigned) [FP0765c, Ac-P-Q-R4-I-L-D-MC-H-V-R-R-V-W-R-NH2] | < 100 | 13 | – | – | – |
